Data set [1] can be described thus: Dried DMSO solubility in aqueous phosphate buffer pH 7.4. To be noted: thermodynamic from solid; aqueous phosphate buffer (PBS) at pH 7.4; read-out: Sol. (dried DMSO solubility). The class given is physicochemical. The protocol:
(§1) Pre-clinical profiling of the compounds was performed at AstraZeneca R&D in Gothenburg, Sweden, applying an integrated panel of assays referred to as the DMPK Wave 1 panel.

The nature of a further data set: Human plasma stability. To be noted: after 18 h incubation. The data set is classed as in vitro ADME. The protocol:
as §1

Data set [2] in a line: Human liver microsome intrinsic clearance. The class given is in vitro ADME. The following applies: human liver microsomes; for microsomal CLint: read-out: HLM Clint; for half-life: read-out: HLM t ½. As to the method: as §1
The nature of data set [3]: Rat hepatocytes intrinsic clearance. The class given is in vitro ADME. To be noted: for hepatocyte CLint: read-out: Rat hep. Clint; for half-life: read-out: Rat hep. t ½. The protocol: as §1
The nature of data set [4]: LogD7.4 (DMPK Wave 1 panel). The data set is classed as physicochemical. To be noted: pH 7.4; average ± SD of three test occasions. The protocol: as §1
The nature of data set [5]: Human plasma protein binding. The data set is classed as in vitro ADME. The following applies: read-out: PPB. As to the method: as §1
Another data set concerns the target T1, human IRAP (Homo sapiens, UniProt Q9UIQ6).
T1 construct: expressed in transfected cells
Nature of the data set: Inhibition of human membrane-bound IRAP overexpressed in HEK293 cells (hIRAP). The class given is biochemical. The protocol:
(§2) Human IRAP and APN were overexpressed, as previously described.
(§3) Membrane preparations from frozen CHO cells and HEK293T cells with overexpressed IRAP and APN were prepared and handled as previously described.
(§4) Details for the assay used to evaluate the inhibitory activity of the compounds have already been published.

Data set [6] concerns the target T2, human aminopeptidase N (APN) (Homo sapiens, UniProt P15144).
T2 construct: expressed in transfected cells; host or cells: HEK293 / HEK293T cells, membrane preparations
Nature of the data set: Inhibition of human aminopeptidase N overexpressed in HEK293 cells. The class given is biochemical. The following applies: for APN IC50 (µM)/pIC50: human aminopeptidase N overexpressed in HEK293 cells. The protocol:
as §2, §3, §4

Data set [7] addresses T3, IRAP (Cricetulus griseus, UniProt A0A8C2M8D5).
T3 sequence (A0A8C2M8D5 1-1025): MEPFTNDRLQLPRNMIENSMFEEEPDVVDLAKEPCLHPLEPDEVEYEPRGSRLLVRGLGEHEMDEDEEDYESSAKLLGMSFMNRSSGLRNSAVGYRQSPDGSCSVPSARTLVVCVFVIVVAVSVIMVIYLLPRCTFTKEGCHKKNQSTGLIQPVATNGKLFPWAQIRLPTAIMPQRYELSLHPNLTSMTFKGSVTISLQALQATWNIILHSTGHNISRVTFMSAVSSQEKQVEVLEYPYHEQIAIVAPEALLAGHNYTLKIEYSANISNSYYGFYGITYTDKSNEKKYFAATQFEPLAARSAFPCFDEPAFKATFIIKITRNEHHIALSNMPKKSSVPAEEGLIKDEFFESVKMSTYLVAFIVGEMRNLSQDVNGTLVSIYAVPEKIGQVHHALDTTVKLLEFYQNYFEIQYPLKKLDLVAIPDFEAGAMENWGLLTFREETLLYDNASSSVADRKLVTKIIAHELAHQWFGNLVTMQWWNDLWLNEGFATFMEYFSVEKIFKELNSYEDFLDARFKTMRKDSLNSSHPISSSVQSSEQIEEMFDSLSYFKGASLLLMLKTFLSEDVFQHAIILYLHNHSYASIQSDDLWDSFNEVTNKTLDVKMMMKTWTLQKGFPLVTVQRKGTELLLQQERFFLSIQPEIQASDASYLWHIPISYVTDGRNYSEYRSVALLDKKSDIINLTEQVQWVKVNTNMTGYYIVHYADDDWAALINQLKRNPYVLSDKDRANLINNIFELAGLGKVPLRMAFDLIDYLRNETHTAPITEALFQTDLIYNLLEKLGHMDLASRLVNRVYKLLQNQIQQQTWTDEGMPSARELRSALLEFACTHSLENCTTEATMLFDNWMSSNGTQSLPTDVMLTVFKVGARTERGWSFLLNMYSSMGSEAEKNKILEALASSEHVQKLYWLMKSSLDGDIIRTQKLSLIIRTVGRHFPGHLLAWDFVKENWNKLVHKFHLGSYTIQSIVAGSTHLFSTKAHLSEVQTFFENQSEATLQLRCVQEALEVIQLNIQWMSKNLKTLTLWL
Briefly: Mechanism of action enzyme kinetics with variable L-Leu-pNA substrate on IRAP from CHO cell membranes. The class given is biochemical, Chinese hamster. To be noted: Vmax decreases, Km constant. The protocol: The design of the enzyme kinetics experiments followed that of the inhibitory experiments, except for the substrate concentrations that were variable at 0.1, 0.2, 0.3, 0.4, 0.8, 1.6 and 2.4 mM. The serial dilution of the compound stock solution was reproduced across all eight rows of a set of four 96-well plates. Four technical replicates were obtained at each substrate concentration by adding the same substrate solution to the top or bottom four rows of each 96-well plate, i.e., a total of four plates were used for this experiment, including a no-substrate control. The absorbance of these plates was then measured every 10 min to follow the enzymatic reaction over time. Data obtained in the presence of 100 µM inhibitor were used to define maximal IRAP inhibition under these assay conditions, i.e., this slope was subtracted from those obtained at lower inhibitor concentrations. Data were fitted to a model for non-competitive inhibition within GraphPad and compared with models for competitive and uncompetitive binding. The non-competitive inhibition model explains the experimental data with a probability of 99.99%, compared to 0.01% and <0.01% for competitive and uncompetitive inhibition, respectively. […]

In data set [8] the target is T4, human recombinant soluble IRAP (sIRAP) (Homo sapiens, UniProt Q9UIQ6).
T4 construct: as well as the recombinant soluble enzyme (sIRAP)
Nature of the data set: Inhibition of human recombinant soluble IRAP (sIRAP). The data set is classed as biochemical. To be noted: human recombinant soluble enzyme.
From the text: as §4

Data set [9] deals with IRAP. Also noted: method as in PMID 27078680. To be noted: jump-dilution experiments; cited from earlier work.

In brackets after ≈: the same amount, converted by molar mass. Entries after “also recorded” stand apart in the source; their conditions may differ.

T2 sequence (P15144 whole entry): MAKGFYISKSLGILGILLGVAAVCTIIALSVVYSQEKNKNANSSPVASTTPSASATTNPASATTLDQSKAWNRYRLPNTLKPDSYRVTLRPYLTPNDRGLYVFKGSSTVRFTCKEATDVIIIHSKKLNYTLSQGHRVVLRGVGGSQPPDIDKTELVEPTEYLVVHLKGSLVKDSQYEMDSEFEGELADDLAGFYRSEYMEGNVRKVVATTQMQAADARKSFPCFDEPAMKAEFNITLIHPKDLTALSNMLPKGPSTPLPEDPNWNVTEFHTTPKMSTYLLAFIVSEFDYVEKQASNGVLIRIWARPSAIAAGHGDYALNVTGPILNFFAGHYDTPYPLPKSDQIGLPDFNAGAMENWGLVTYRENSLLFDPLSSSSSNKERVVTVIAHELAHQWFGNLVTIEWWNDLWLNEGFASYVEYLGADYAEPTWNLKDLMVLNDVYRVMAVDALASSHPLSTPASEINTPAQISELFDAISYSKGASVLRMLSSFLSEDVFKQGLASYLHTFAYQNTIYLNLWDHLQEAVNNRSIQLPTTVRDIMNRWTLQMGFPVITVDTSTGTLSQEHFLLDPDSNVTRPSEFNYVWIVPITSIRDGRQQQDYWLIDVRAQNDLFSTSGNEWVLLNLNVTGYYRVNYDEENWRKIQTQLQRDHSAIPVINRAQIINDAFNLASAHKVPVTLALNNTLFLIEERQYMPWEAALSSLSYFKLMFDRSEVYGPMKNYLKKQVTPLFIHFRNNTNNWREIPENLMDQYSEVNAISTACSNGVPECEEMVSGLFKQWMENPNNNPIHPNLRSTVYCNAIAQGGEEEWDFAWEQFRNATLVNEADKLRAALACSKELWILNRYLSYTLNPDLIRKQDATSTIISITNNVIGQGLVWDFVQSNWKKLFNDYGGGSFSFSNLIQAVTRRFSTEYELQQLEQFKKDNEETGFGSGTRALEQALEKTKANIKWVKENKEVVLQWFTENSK
T1 sequence (Q9UIQ6 whole entry): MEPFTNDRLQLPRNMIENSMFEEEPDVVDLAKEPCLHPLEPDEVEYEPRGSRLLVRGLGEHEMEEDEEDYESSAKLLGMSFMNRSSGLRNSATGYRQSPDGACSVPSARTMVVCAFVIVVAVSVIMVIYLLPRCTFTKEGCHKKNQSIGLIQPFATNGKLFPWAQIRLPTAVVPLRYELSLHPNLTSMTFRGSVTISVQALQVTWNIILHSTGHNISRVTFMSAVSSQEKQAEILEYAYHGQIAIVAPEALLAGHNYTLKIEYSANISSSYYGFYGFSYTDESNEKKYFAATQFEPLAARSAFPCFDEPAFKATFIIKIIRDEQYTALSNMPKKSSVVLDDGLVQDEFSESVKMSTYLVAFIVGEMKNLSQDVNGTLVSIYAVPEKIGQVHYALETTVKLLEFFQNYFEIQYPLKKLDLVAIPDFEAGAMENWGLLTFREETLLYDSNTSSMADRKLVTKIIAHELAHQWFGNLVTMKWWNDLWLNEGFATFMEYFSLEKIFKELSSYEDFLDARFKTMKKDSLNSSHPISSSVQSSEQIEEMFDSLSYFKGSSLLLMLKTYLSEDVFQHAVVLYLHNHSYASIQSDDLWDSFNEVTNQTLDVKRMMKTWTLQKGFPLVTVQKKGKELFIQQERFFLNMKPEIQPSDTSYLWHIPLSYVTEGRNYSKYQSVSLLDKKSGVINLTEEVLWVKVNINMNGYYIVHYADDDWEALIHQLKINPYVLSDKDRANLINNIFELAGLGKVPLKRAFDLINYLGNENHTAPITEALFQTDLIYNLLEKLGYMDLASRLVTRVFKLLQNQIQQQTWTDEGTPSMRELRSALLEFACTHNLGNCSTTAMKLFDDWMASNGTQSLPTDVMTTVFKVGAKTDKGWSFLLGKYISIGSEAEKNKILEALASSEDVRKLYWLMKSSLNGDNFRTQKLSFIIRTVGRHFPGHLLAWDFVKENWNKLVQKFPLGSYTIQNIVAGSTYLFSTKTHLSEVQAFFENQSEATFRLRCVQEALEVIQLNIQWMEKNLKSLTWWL
T4 sequence (Q9UIQ6 155-1025 limits assumed): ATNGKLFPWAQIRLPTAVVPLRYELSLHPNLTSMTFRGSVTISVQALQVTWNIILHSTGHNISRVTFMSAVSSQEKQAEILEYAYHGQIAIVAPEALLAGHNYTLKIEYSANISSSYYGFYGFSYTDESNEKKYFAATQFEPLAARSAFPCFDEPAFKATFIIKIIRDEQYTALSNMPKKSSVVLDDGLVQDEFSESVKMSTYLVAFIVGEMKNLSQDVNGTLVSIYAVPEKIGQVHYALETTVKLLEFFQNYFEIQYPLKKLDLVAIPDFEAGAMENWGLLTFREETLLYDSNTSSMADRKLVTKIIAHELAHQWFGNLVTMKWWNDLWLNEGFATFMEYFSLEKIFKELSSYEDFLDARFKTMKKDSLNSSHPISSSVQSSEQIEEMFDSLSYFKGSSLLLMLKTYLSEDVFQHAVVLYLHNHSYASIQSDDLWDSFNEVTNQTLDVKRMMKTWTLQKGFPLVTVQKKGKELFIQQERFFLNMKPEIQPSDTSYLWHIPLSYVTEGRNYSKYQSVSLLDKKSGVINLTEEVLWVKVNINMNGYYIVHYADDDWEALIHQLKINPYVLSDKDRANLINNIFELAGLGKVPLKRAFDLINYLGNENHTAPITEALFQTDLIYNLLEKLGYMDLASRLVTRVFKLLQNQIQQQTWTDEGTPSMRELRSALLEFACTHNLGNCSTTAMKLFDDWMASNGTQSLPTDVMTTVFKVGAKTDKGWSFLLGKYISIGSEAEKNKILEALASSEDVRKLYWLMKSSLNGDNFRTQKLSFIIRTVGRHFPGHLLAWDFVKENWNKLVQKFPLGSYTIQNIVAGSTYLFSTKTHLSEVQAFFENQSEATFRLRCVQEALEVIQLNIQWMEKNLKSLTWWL

Regarding `COc1ccccc1-c1nc(C2CCCN2C(=S)NCc2ccccc2)n2ccccc12` (stereo not drawn) [Compound 6v, N-Benzyl-2-(1-(2-methoxyphenyl)imidazo [1,5-a]pyridin-3-yl)pyrrolidine-1-carbothioamide], the solubility in data set [1] was in the range of 0.6 to 2 µM (≈ 0.266 to 0.885 µg/mL). Also, the “Plasma Stab” value in “Human plasma stability” is 76 ± 6 % compound remaining. Besides, in data set [2], the microsomal CLint was above 300 µL/min/mg and the half-life was below 2.3 min. Moreover, in [3], the hepatocyte CLint was above 300 µL/min/1e6 cells and the half-life was below 2.3 min. This compound also had a logD in [4] of 3.3 ± 0.4. In addition, the fraction unbound in data set [5] turned out to be 0.007 ± 0.001.

`COc1ccccc1-c1nc(C2CCCN2C(=O)N[C@H](C)c2ccccc2)n2ccccc12` (mixture of isomers) [Compound 6b, 2-(1-(2-Methoxyphenyl)imidazo [1,5-a]pyridin-3-yl)-N-((R)-1-phenylethyl)pyrrolidine-1-carboxamide] gave an IC50 on human IRAP of 50 µM. In addition, the “APN IC50 (µM)/pIC50” value in data set [6] was “neither compound showed any inhibitory activity; also recorded: inactive (2)”.

Consider `COc1ccccc1-c1nc(CN(C)C(=O)N[C@@H](C)c2ccccc2)n2ccccc12` [Compound 6m, (S)-1-((1-(2-Methoxyphenyl)imidazo [1,5-a]pyridin-3-yl)methyl)-1-methyl-3-(1-phenylethyl)urea], for which, in data set [1], the solubility came to 55 ± 12 µM (≈ 22.8 µg/mL). Moreover, in the data set “Human plasma stability”, the “Plasma Stab” value turned out to be 99 ± 5 % compound remaining. In data set [2], the microsomal CLint is above 300 µL/min/mg and the half-life is below 2.3 min. For the same compound, in data set [3], the hepatocyte CLint was above 300 µL/min/1e6 cells and the half-life was below 2.3 min. Further, the logD in [4] turned out to be 2.9 ± 0.6. Besides, the fraction unbound in data set [5] stood at 0.006 ± 0.001.

For `COc1ccccc1-c1nc(C2CCCN2C(=O)N[C@@H](C)c2ccccc2)n2ccccc12` (mixture of isomers) [Compound 6a, 2-(1-(2-Methoxyphenyl)imidazo [1,5-a]pyridin-3-yl)-N-((S)-1-phenylethyl)pyrrolidine-1-carboxamide], on IRAP [7], the “mode of inhibition versus substrate” value is “non-competitive binding with the substrate”. Further, the IC50 at human IRAP is 1.3 µM; in data set [8], 1000 nM. Moreover, the “impact on the activity of human APN” value in data set [6] (at concentrations up to 125 µM) is reported as “no impact”. In addition, the “APN IC50 (µM)/pIC50” value in data set [6] is “neither compound showed any inhibitory activity; also recorded: inactive (2)”. In addition, the “reversibility of binding to IRAP” value in the data set on IRAP [9] is on record as “binds reversibly”.

(Values after PMC10931632, “Inhibition of Insulin-Regulated Aminopeptidase by Imidazo [1,5-α]pyridines—Synthesis and Evaluation” (International Journal of Molecular Sciences, 2024).)
